Values of other authors as cited in US8354043B2, “Natural gas odorization” (Enersol Inc., N.A.L.P., priority 2008, dated 2013).
Counter-ions that a name gives are not always drawn.

Settings: for Pvap @ 20° C. (vapor pressure): 20° C. and 1 atm; for Pvap @ 25° C. (vapor pressure): 25° C. and 1 atm

Compound | Pvap @ 20° C. (vapor pressure) [psi] | Pvap @ 25° C. (vapor pressure)
O=C1CCCO1 [Compound 17, γ-Butyrolactone] | 0.03 | 0.01 psi
O=CCC=O [Compound 39, Malondialdehyde] | – | 0.09 psi
CCC(=O)CC(C)=O [Compound 26, 2,4-Hexandione] | – | 0.06 psi
CCCC(=O)C(C)=O [Compound 24, 2,3-Hexanedione] | 0.19 | 0.06 psi
O=CCCCC=O [Compound 41, Pentane-1,5-dial] | – | 0.01 psi
O=c1ccocc1 [Compound 2, 4-Pyrone] | – | 0.004 psi
C=CC(=O)CC [Compound 29, Ethyl vinyl ketone] | – | 0.74 psi
CC(=O)C=O [Compound 42, 2-Oxo-propanal] | 0.52 | –
O=CC=O [Compound 38, Ethanedial] | – | 4.93 psi
CCCOC=O [Compound 48, Propyl formate] | 1.60 | –
CC(=O)CCC(C)=O [Compound 27, 2,5-Hexanedione] | 0.01 | 0.06 psi
CC(=O)C1CCCC1 [Compound 21, 1-Cyclopentyl-ethanone] | – | 0.07 psi
O=C1C=CCC1 [Compound 18, 2-Cyclopenten-1-one] | – | 0.18 psi
CCC(=O)C(C)=O [Compound 23, 2,3-Petanedione] | – | 0.60 psi
O=CC1CCCC1 [Compound 36, Cyclopentaldehyde] | 0.17 | –
CC(=O)C1CCCCC1 [Compound 12, Cyclohexyl methyl ketone] | – | .02 psi
CC(=O)CC(C)=O [Compound 25, Aceylacetone] | 0.13 | 0.06 psi
CC=CC=O [Compound 43, 2-Butenal] | 0.58 | –
CC(=O)C1=CCCCC1 [Compound 13, 1-(1-Cyclohexen-1-yl)-ethanone] | – | 0.003 psi
O=C1C=CCCC1 [Compound 9, 2-Cyclohex-2-en-1-one] | – | 0.07 psi
O=C1CCCCC1 [Compound 11, Cyclohexanone] | – | 0.08 psi
O=CC1CCCCC1 [Compound 34, Cyclohexanal] | 0.05 | –
3-Cyclohex-1-one [Compound 10] | – | 0.04 psi
C=CC(C)=O [Compound 28, Methyl vinyl ketone] | – | 2.94 psi
CCOC=O [Compound 47, Ethyl formate] | – | 4.74 psi
O=C1CC=CO1 [Compound 15, 2(3H)-Furanone] | – | 0.02 psi
CC(C)OC=O [Compound 49, Isopropyl formate] | 2.67 | –
